For assay [1], the system named is TAZ nuclear translocation in SW1990 cells. Put plainly: TAZ Nuclear Translocation Assay. The assay is classed as cell-based. The note with it: Homo sapiens, 4 hours. How it is done: The SW1990 cells (ATCC, CRL2172) were seeded at 5000 cells/well by adding 30 μL/well of cells in RPMI1640, 10% FBS, 2 mM glutamine culture media to a 384-well plate (Greiner 781091). The cells were incubated overnight at 37° C. Next day, test compounds were directly added to the cells using the Echo Liquid Handler (Labcyte), incubate at 37° C. for 4 hours. The cells were fixed with 4% paraformaldehyde and incubate for 20 minutes at room temperature. After washing three times with 100 μL PBS, 0.5% Triton X-100 was added to permeabilize the cells, incubate at room temperature for 5 minutes, following by washing the cells three times with PBS. 3% BSA was added to the cells, incubate for one hour at room temperature, following by washing three times with PBS. 50 μL of 1:750 diluted rabbit Anti-TAZ (Cell signaling D316D) in 3% BSA was added to the cells, incubate at 4° C. overnight. Next day, after washing the cells three times with PBS, 50 μL of 1:1250 diluted donkey anti-Rabbit, Alexa Fluor 488 (Invitrogen A21206) and 1:6250 diluted Hoechst 33342 (Molecular Probes H-21492) in 3% BSA was added to the cells, incubate at room temperature for one hour. The cells were washed three times with PBS, then image with the CellInsight CX7 High-Content Imager. The ratio of nuclear mean fluorescence intensity and cytoplasmic ring region mean fluorescence intensity was calculated. The % inhibition was normalized using DMSO as 0% inhibition and an inhibitor control as 100% inhibition. The EC50 values were calculated by fitting the % inhibition with a nonlinear four-parameter logistical equation.

In assay [2] the target is Human LATS2 catalytic domain (Homo sapiens (Human), UniProt Q9NRM7). Put plainly: LATS2 High ATP HTRF Assay. Type of assay: biochemical. The settings on record: no asterisk: LATS2 High ATP HTRF Assay, 5000 μM ATP, 0.05 nM LATS2. The method, then: Human LATS2 catalytic domain which contains the amino acids G553-V1088 (accession NP_055387) was purified in-house. The LATS2 catalytic domain was co-purified with Mob1b (accession NP_775739). The LATS2 biochemical HTRF assay was performed using the HTRF KinEASE-STK S1 Kit (Cisbio, Cat #62ST1PEC), following the protocol from the manufacturer. Compounds were dispensed by the Echo Liquid Handler (Labcyte) into a white 384-well plate (PerkinElmer, Cat #6008289). 3 uL of 2×LATS2 enzyme solution was added to the compounds, following by a 10 minute incubation at room temperature. Then, 2×ATP and STK S1 peptide solution was added to initiate the one hour enzyme reaction at room temperature. The final condition of the reaction was 0.2 nM LATS2, 50 μM ATP, 0.5 μM STK S1 peptide in 50 mM HEPES pH7.2, 10 mM MgCl2, 0.1% BGG, 0.005% Brij-35, 1 mM DTT. The reaction was quenched by adding 6 uL of the detection mixture which contained Streptavidin XL665 and STK Antibody-Cryptate (Cisbio), incubate for 1 hour at room temperature. The HTRF (665 nm/620 nm) signal was read on the Envision plater reader (PerkinElmer). The IC50 values were determined by fitting the % inhibition with a nonlinear four-parameter logistical equation. The Ki values were calculated using the Cheng-Prusoff equation for a competitive inhibitor, IC50═Ki (1+S/Km)+M [E] with ATP Km for LATS2=105 μM.
Chain of Human LATS2 catalytic domain (Q9NRM7 553-1088): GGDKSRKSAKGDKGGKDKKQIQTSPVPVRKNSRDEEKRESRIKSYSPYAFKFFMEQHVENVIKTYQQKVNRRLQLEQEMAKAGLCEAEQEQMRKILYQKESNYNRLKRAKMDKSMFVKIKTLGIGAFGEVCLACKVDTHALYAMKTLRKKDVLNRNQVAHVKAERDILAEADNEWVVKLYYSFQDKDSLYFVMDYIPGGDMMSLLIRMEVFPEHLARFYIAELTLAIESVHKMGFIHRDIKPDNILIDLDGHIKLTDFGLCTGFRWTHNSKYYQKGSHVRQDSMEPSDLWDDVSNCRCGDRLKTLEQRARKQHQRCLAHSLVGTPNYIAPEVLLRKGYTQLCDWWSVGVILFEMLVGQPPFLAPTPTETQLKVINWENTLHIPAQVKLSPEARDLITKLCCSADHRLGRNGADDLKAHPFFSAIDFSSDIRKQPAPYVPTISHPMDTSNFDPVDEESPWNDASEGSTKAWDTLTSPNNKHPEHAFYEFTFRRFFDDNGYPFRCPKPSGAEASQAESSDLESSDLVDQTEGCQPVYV
Chain of Human LATS2 catalytic domain (Q7L9L4 whole entry partner, the tested form may be a part): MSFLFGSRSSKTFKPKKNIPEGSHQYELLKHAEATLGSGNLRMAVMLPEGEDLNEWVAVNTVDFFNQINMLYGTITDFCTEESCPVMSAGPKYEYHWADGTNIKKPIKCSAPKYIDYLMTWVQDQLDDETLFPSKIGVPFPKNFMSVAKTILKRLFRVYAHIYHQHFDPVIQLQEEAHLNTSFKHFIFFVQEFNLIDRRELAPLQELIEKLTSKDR
The LATS2 high ATP HTRF assay was performed using the same protocol as the Standard LATS2 HTRF assay. The final condition of the reaction was 0.05 nM LATS2, 5000 μM ATP, 0.5 μM STK S1 peptide in 50 mM HEPES pH7.2, 10 mM MgCl2, 0.1% BGG, 0.005% Brij-35, 1 mM DTT and the 2 hours enzyme reaction at room temperature.

Each structure is given as a SMILES string.

Broadly, the EC50 is the concentration needed to bring the measured effect to its halfway point. A low value points to an effect from little substance. For orientation: Ki means the equilibrium dissociation constant of an inhibitor or competing ligand from its target. Higher therefore signals weaker binding. In the case of `Clc1[nH]ncc1-c1nc(N2CCC3(CCNC3)CC2)c2ccncc2n1` [Compound 153, 2-(5-chloro-1H-pyrazol-4-yl)-4-(2,8-diazaspiro[4.5]decan-8-yl)pyrido[3,4-d]pyrimidine], the EC50 in assay [1] is over 10000 nM. For the same compound, the Ki in assay [2] came to 0.11 nM.

Take `COc1cncc2nc(-c3ccncc3)nc(N3CCC4(CCN(CC(C)(C)O)C4)CC3)c12` [Compound 250, 1-(8-(5-methoxy-2-(pyridin-4-yl)pyrido[3,4-d]pyrimidin-4-yl)-2,8-diazaspiro[4.5]decan-2-yl)-2-methylpropan-2-ol]: the midpoint of the response in assay [1], the EC50, lay at 100 nM. For the same compound, in assay [2], the Ki worked out at 0.033 nM.

In turn, `Cc1n[nH]cc1-c1nc(N2CCC3(CCN(C)C3)CC2)c2cc(Cc3ccccn3)ncc2n1` [Example 238, 2-(3-methyl-1H-pyrazol-4-yl)-4-(2-methyl-2,8-diazaspiro[4.5]decan-8-yl)-6-(pyridin-2-ylmethyl)pyrido[3,4-d]pyrimidine] yielded an EC50 in assay [1] of 2300 nM. For the same compound, the affinity in assay [2] corresponds to a Ki of 0.25 nM.

As for `FC1(F)CNCC12CCN(c1nc(-c3ccncc3)nc3cnccc13)CC2` [Example 223, 4-(4,4-difluoro-2,8-diazaspiro[4.5]decan-8-yl)-2-(pyridin-4-yl)pyrido[3,4-d]pyrimidine], the EC50 in assay [1] was over 10000 nM. The same compound had a Ki in assay [2] of 2.7 nM.

Consider `Cc1n[nH]cc1-c1nc(N2CCC3(CCN(C[C@H](C)O)C3)CC2)c2ccncc2n1` (single isomer, unassigned) [Compound 144], for which the EC50 in assay [1] was 690 nM. The compound further gave a Ki in assay [2] of 0.086 nM.

In assay [1], `Cc1[nH]ncc1-c1nc(N2CCC3(CC2)CCN([C@H]2CC[C@H]2O)C3)c2ccncc2n1` (single isomer, unassigned) [Example 231] returned an EC50 of 900 nM. This compound also registered a Ki in assay [2] of 0.11 nM.

In assay [1], `Cc1n[nH]cc1-c1nc(N2CCC3(CCN(CCF)C3)CC2)c2ccncc2n1` [Example 219, 4-(2-(2-fluoroethyl)-2,8-diazaspiro[4.5]decan-8-yl)-2-(3-methyl-1H-pyrazol-4-yl)pyrido[3,4-d]pyrimidine] returned an EC50 of 460 nM. The compound further had a Ki in assay [2] of 0.067 nM.

For the compound `NC(=O)CCN1CCC2(CCN(c3nc(-c4ccncc4)nc4cnccc34)CC2)C1` [Compound 132, 3-(8-(2-(pyridin-4-yl)pyrido[3,4-d]pyrimidin-4-yl)-2,8-diazaspiro[4.5]decan-2-yl)propanamide], the EC50 in assay [1] was 2400 nM. This compound also registered a Ki in assay [2] of 0.25 nM.

`COc1cncc2nc(-c3c[nH]nc3C)nc(N3CCC4(CCN(CC5COC5)C4)CC3)c12` [Compound 273, 5-methoxy-2-(3-methyl-1H-pyrazol-4-yl)-4-(2-(oxetan-3-ylmethyl)-2,8-diazaspiro[4.5]decan-8-yl)pyrido[3,4-d]pyrimidine]: the EC50 in assay [1] amounted to 260 nM. The same compound gave a Ki in assay [2] of 0.043 nM.

Consider `c1cc(-c2nc(N3CCC4(CCN(c5cn[nH]c5)C4)CC3)c3ccncc3n2)ccn1` [Compound 141, 4-(2-(1H-pyrazol-4-yl)-2,8-diazaspiro[4.5]decan-8-yl)-2-(pyridin-4-yl)pyrido[3,4-d]pyrimidine], for which, in assay [1], the EC50 is over 10000 nM. The Ki in assay [2] is 3.29 nM.

For the compound `F[C@H]1CNCC12CCN(c1nc(-c3ccncc3)nc3cnccc13)CC2` [Example 235, (R)-4-(4-fluoro-2,8-diazaspiro[4.5]decan-8-yl)-2-(pyridin-4-yl)pyrido[3,4-d]pyrimidine], in assay [1], the EC50 was determined as 1800 nM. This compound returned a Ki in assay [2] of 1.3 nM.

The compound `[O-][n+]1ccc(-c2nc(N3CCC4(CCNC4)CC3)c3ccncc3n2)cc1` [Compound 251, 4-(4-(2,8-diazaspiro[4.5]decan-8-yl)pyrido[3,4-d]pyrimidin-2-yl)pyridine 1-oxide] came in with an EC50 in assay [1] of over 10000 nM. In assay [2], this compound displayed a Ki of 3.5 nM.

`OCC1CC2(CCN(c3nc(-c4ccncc4)nc4cnccc34)CC2)CN1` (stereo not drawn) [Compound 196, (8-(2-(pyridin-4-yl)pyrido[3,4-d]pyrimidin-4-yl)-2,8-diazaspiro[4.5]decan-3-yl)methanol] returned an EC50 in assay [1] of 970 nM. In assay [2], the Ki is 0.057 nM.

For `OCC1CC2(CCN(c3nc(-c4ccncc4)nc4cnccc34)CC2)CN1C1CCCC1` (stereo not drawn) [Example 206, (2-cyclopentyl-8-(2-(pyridin-4-yl)pyrido[3,4-d]pyrimidin-4-yl)-2,8-diazaspiro[4.5]decan-3-yl)methanol], a half-maximal effect in assay [1] (EC50) was put at 170 nM. Moreover, the affinity in assay [2] corresponds to a Ki of 0.1 nM.

In turn, `NC(=O)CN1CCC2(CCN(c3nc(-c4ccncc4)nc4cnccc34)CC2)C1` [Compound 130, 2-(8-(2-(pyridin-4-yl)pyrido[3,4-d]pyrimidin-4-yl)-2,8-diazaspiro[4.5]decan-2-yl)acetamide] displayed an EC50 in assay [1] of 1200 nM. The compound also displayed a Ki in assay [2] of 0.45 nM.

Take `Clc1nccc2c(N3CCC4(CCNC4)CC3)nc(-c3ccncc3)nc12` [Compound 272, 8-chloro-2-(pyridin-4-yl)-4-(2,8-diazaspiro[4.5]decan-8-yl)pyrido[3,4-d]pyrimidine trifluoro acetate]: a half-maximal response in assay [1] (EC50) required 1100 nM. Further, the Ki in assay [2] amounted to 0.31 nM.

Take `Cc1n[nH]cc1-c1nc(N2CCC3(CCN(C)C3)CC2)c2cc(Cc3cccnc3)ncc2n1` [Example 227, 2-(3-methyl-1H-pyrazol-4-yl)-4-(2-methyl-2,8-diazaspiro[4.5]decan-8-yl)-6-(pyridin-3-ylmethyl)pyrido[3,4-d]pyrimidine]: the EC50 in assay [1] came out at 2300 nM. Besides, affinity in assay [2] was put at a Ki of 0.086 nM.

`CC(C)c1cncc2nc(-c3ccncc3)nc(N3CCC4(CCNC4)CC3)c12` [Example 240, 5-Isopropyl-2-(pyridin-4-yl)-4-(2,8-diazaspiro[4.5]decan-8-yl)pyrido[3,4-d]pyrimidine]: the EC50 in assay [1] turned out to be 3200 nM. Moreover, the Ki in assay [2] is 2 nM.

Turning to `COc1cncc2nc(-c3ccncc3)nc(N3CCC4(CCN(CC5(O)CCC5)C4)CC3)c12` [Compound 253, 1-((8-(5-methoxy-2-(pyridin-4-yl)pyrido[3,4-d]pyrimidin-4-yl)-2,8-diazaspiro[4.5]decan-2-yl)methyl)cyclobutan-1-ol], the response in assay [1] was half-maximal at 120 nM (EC50). Also, the Ki in assay [2] was found to be 0.28 nM.

On to `CC(C)(O)C#Cc1nccc2c(N3CCC4(CCNC4)CC3)nc(-c3ccncc3)nc12` [Compound 245, 2-methyl-4-(2-(pyridin-4-yl)-4-(2,8-diazaspiro[4.5]decan-8-yl)pyrido[3,4-d]pyrimidin-8-yl)but-3-yn-2-ol], for which it took 4800 nM to reach a half-maximal effect in assay [1] (EC50). Moreover, the Ki in assay [2] stood at 0.039 nM.

With `CNC(=O)C1CC2(CCN(c3nc(-c4ccncc4)nc4cnccc34)CC2)CN1` (stereo not drawn) [Compound 172, N-methyl-8-(2-(pyridin-4-yl)pyrido[3,4-d]pyrimidin-4-yl)-2,8-diazaspiro[4.5]decane-3-carboxamide], it took 6500 nM to reach a half-maximal effect in assay [1] (EC50). This compound displayed a Ki in assay [2] of 0.64 nM.

Regarding `COc1cncc2nc(-c3c[nH]nc3C)nc(N3CCC4(CCN(CC(C)(C)O)C4)CC3)c12` [Compound 265, 1-(8-(5-methoxy-2-(3-methyl-1H-pyrazol-4-yl)pyrido[3,4-d]pyrimidin-4-yl)-2,8-diazaspiro[4.5]decan-2-yl)-2-methylpropan-2-ol], the EC50 in assay [1] worked out at 240 nM. The same compound showed a Ki in assay [2] of 0.047 nM.

For the compound `Cc1[nH]ncc1-c1nc(N2CCC3(CCN(C)C3)CC2)c2ccnc(Cl)c2n1` [Compound 262, 8-chloro-2-(5-methyl-1H-pyrazol-4-yl)-4-(2-methyl-2,8-diazaspiro[4.5]decan-8-yl)pyrido[3,4-d]pyrimidine], in assay [1], a half-maximal response (EC50) required 250 nM. The compound further had a Ki in assay [2] of 0.028 nM.

Compound `OC1(CN2CCC3(CCN(c4nc(-c5ccncc5)nc5cnccc45)CC3)C2)COC1` [Example 211, 3-((8-(2-(Pyridin-4-yl)pyrido[3,4-d]pyrimidin-4-yl)-2,8-diazaspiro[4.5]decan-2-yl)methyl)oxetan-3-ol] showed an EC50 in assay [1] of 420 nM. In assay [2], the affinity, expressed as Ki, was 0.11 nM.

For the origin of these results see patent US20240174696A1, “2,8-DIAZASPIRO[4.5]DECANE COMPOUNDS” (Genentech, Inc., priority 2021, published 2024).
